Results as given in ChEMBL document CHEMBL4311999, “3-Hydrazinoisatin-based benzenesulfonamides as novel carbonic anhydrase inhibitors endowed with anticancer activity: Synthesis, in vitro biological evaluation and in silico insights” (Eur J Med Chem, 2019).
pIC50, pKi: −log10 of the molar value.

What was measured:
Hs-578T = test: Growth inhibition of human Hs 578T cells at 10 uM incubated for 48 hrs by sulforhodamine B assay relative to control; format: functional; conditions: read-out: GI
K562 = test: Growth inhibition of human K562 cells at 10 uM incubated for 48 hrs by sulforhodamine B assay relative to control; format: functional; conditions: K562, 48 h, read-out: GI
HCT-15 = test: Growth inhibition of human HCT15 cells at 10 uM incubated for 48 hrs by sulforhodamine B assay relative to control; format: functional; conditions: HCT-15, 48 h, read-out: GI
NCI-H322M = test: Growth inhibition of human NCI-H322M cells at 10 uM incubated for 48 hrs by sulforhodamine B assay relative to control; format: functional; conditions: read-out: GI
[1] = biological target: Cyclin-dependent kinase 2/cyclin E1 (Homo sapiens, UniProt P24941); test: Inhibition of human recombinant CDK2/Cyclin E expressed in baculovirus infected Sf9 cells using histone H1 substrate in presence of [gamma33P]ATP
DU-145 = test: Growth inhibition of human DU145 cells at 10 uM incubated for 48 hrs by sulforhodamine B assay relative to control; format: functional; conditions: DU-145, 48 h, read-out: GI
Carbonic anhydrase 9 = Carbonic anhydrase 9 (Homo sapiens, UniProt Q16790); test: Inhibition of recombinant human carbonic anhydrase 9 preincubated for 15 mins by phenol red dye based stopped flow CO2 hydration assay
U-251 = test: Growth inhibition of human U251 cells at 10 uM incubated for 48 hrs by sulforhodamine B assay relative to control; format: functional; conditions: U-251, 48 h, read-out: GI
CDK9/cyclin T1 = CDK9/cyclin T1 (Homo sapiens, UniProt P50750); test: Inhibition of human full length N-terminal GST-HIS6 fused CDK9 (M1 to F372 residues)/N-terminal HIS6-fused Cyclin-T1 (M1 to K726 residues) co-expressed in Sf9 cells using (YSPTSPS)2KK as substrate in presence of [gamma33P]ATP
Sequence of CDK9/cyclin T1 (O60563 whole entry, the tested form may be a part): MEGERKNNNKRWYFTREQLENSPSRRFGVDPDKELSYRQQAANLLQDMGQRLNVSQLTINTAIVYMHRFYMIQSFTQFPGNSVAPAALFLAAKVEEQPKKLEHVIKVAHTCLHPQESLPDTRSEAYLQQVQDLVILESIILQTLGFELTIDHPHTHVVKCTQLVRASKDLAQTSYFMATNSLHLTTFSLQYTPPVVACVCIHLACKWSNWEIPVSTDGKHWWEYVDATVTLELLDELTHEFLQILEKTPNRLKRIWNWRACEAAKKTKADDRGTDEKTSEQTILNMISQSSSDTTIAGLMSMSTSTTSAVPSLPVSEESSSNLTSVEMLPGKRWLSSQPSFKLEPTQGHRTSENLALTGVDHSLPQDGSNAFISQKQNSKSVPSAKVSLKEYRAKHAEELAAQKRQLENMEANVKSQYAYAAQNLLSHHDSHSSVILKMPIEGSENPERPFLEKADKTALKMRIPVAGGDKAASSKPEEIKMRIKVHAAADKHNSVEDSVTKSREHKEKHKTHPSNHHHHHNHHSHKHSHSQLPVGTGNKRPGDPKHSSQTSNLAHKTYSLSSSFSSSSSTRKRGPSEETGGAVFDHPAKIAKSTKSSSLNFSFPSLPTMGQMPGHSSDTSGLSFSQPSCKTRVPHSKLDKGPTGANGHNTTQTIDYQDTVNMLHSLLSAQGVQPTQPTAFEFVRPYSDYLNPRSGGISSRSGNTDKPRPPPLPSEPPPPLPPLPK
Sequence of CDK9/cyclin T1 (P50750 whole entry, the tested form may be a part): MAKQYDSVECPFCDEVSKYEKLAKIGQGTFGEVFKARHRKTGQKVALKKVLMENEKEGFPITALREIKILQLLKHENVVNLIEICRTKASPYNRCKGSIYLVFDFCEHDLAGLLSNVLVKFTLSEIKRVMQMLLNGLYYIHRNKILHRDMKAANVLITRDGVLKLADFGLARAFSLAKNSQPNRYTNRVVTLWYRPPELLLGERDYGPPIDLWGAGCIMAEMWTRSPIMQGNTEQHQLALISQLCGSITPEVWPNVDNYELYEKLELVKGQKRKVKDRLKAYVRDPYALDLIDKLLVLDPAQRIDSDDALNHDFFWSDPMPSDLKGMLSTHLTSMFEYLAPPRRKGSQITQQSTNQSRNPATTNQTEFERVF

HCT-116 = test: Growth inhibition of human HCT116 cells at 10 uM incubated for 48 hrs by sulforhodamine B assay relative to control; format: functional; conditions: HCT-116, 48 h, read-out: GI
M14 = test: Growth inhibition of human M14 cells at 10 uM incubated for 48 hrs by sulforhodamine B assay relative to control; format: functional; conditions: M14, 48 h, read-out: GI
SW-620 = test: Growth inhibition of human SW620 cells at 10 uM incubated for 48 hrs by sulforhodamine B assay relative to control; format: functional; conditions: SW-620, 48 h, read-out: GI
CAKI-1 = test: Growth inhibition of human Caki1 cells at 10 uM incubated for 48 hrs by sulforhodamine B assay relative to control; format: functional; conditions: CAKI-1, 48 h, read-out: GI
NCI/ADR-RES = test: Growth inhibition of human NCI/ADR-RES cells at 10 uM incubated for 48 hrs by sulforhodamine B assay relative to control; format: functional; conditions: read-out: GI
UO-31 = test: Growth inhibition of human UO31 cells at 10 uM incubated for 48 hrs by sulforhodamine B assay relative to control; format: functional; conditions: UO-31, 48 h, read-out: GI
Carbonic anhydrase 12 = Carbonic anhydrase 12 (Homo sapiens, UniProt O43570); test: Inhibition of recombinant human carbonic anhydrase 12 preincubated for 15 mins by phenol red dye based stopped flow CO2 hydration assay
Sequence of Carbonic anhydrase 12 (O43570 whole entry): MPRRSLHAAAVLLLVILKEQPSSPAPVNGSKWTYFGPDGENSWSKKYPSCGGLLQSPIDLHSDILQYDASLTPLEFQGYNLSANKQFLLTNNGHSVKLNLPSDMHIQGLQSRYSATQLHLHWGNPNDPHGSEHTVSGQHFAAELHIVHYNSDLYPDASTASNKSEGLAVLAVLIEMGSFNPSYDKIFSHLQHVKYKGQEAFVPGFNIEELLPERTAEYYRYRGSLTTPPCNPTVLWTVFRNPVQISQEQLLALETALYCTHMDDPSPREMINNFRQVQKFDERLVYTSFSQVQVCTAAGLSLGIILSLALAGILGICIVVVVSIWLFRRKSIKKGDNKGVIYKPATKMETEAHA

RPMI-8226 = test: Growth inhibition of human RPMI8226 cells at 10 uM incubated for 48 hrs by sulforhodamine B assay relative to control; format: functional; conditions: RPMI-8226, 48 h, read-out: GI
MCF7 = test: Growth inhibition of human MCF7 cells at 10 uM incubated for 48 hrs by sulforhodamine B assay relative to control; format: functional; conditions: MCF7, 48 h, read-out: GI
SF-539 = test: Growth inhibition of human SF539 cells at 10 uM incubated for 48 hrs by sulforhodamine B assay relative to control; format: functional; conditions: SF-539, 48 h, read-out: GI
HOP-62 = test: Growth inhibition of human HOP62 cells at 10 uM incubated for 48 hrs by sulforhodamine B assay relative to control; format: functional; conditions: HOP-62, 48 h, read-out: GI
Carbonic anhydrase 2 = Carbonic anhydrase 2 (Homo sapiens, UniProt P00918); test: Inhibition of recombinant human carbonic anhydrase 2 preincubated for 15 mins by phenol red dye based stopped flow CO2 hydration assay
MOLT-4 = test: Growth inhibition of human MOLT4 cells at 10 uM incubated for 48 hrs by sulforhodamine B assay relative to control; format: functional; conditions: MOLT-4, 48 h, read-out: GI
SR = test: Growth inhibition of human SR cells at 10 uM incubated for 48 hrs by sulforhodamine B assay relative to control; format: functional; conditions: read-out: GI
SK-OV-3 = test: Growth inhibition of human SKOV3 cells at 10 uM incubated for 48 hrs by sulforhodamine B assay relative to control; format: functional; conditions: SK-OV-3, 48 h, read-out: GI
OVCAR-5 = test: Growth inhibition of human OVCAR5 cells at 10 uM incubated for 48 hrs by sulforhodamine B assay relative to control; format: functional; conditions: OVCAR-5, 48 h, read-out: GI
Malme-3M = test: Growth inhibition of human MALME-3M cells at 10 uM incubated for 48 hrs by sulforhodamine B assay relative to control; format: functional; conditions: read-out: GI
SNB-75 = test: Growth inhibition of human SNB75 cells at 10 uM incubated for 48 hrs by sulforhodamine B assay relative to control; format: functional; conditions: SNB-75, 48 h, read-out: GI
OVCAR-8 = test: Growth inhibition of human OVCAR8 cells at 10 uM incubated for 48 hrs by sulforhodamine B assay relative to control; format: functional; conditions: OVCAR-8, 48 h, read-out: GI
SN12C = test: Growth inhibition of human SN12C cells at 10 uM incubated for 48 hrs by sulforhodamine B assay relative to control; format: functional; conditions: read-out: GI
NCI-H460 = test: Growth inhibition of human NCI-H460 cells at 10 uM incubated for 48 hrs by sulforhodamine B assay relative to control; format: functional; conditions: NCI-H460, 48 h, read-out: GI
NCI-H226 = test: Growth inhibition of human NCI-H226 cells at 10 uM incubated for 48 hrs by sulforhodamine B assay relative to control; format: functional; conditions: NCI-H226, 48 h, read-out: GI
NCI-H522 = test: Growth inhibition of human NCI-H522 cells at 10 uM incubated for 48 hrs by sulforhodamine B assay relative to control; format: functional; conditions: NCI-H522, 48 h, read-out: GI
SK-MEL-5 = test: Growth inhibition of human SK-MEL-5 cells at 10 uM incubated for 48 hrs by sulforhodamine B assay relative to control; format: functional; conditions: SK-MEL-5, 48 h, read-out: GI
ACHN = test: Growth inhibition of human ACHN cells at 10 uM incubated for 48 hrs by sulforhodamine B assay relative to control; format: functional; conditions: read-out: GI
OVCAR-4 = test: Growth inhibition of human OVCAR4 cells at 10 uM incubated for 48 hrs by sulforhodamine B assay relative to control; format: functional; conditions: OVCAR-4, 48 h, read-out: GI

pIC50 [1]	pKi (Carbonic anhydrase 9)	pIC50 (CDK9/cyclin T1)	pKi (Carbonic anhydrase 12)	SMILES	inhibition of growth at 10 µM (Hs-578T)	inhibition of growth at 10 µM (K562)	inhibition of growth at 10 µM (HCT-15)	inhibition of growth at 10 µM (NCI-H322M)	inhibition of growth at 10 µM (DU-145)	inhibition of growth at 10 µM (U-251)	inhibition of growth at 10 µM (HCT-116)	inhibition of growth at 10 µM (M14)	inhibition of growth at 10 µM (SW-620)	inhibition of growth at 10 µM (CAKI-1)	inhibition of growth at 10 µM (NCI/ADR-RES)	inhibition of growth at 10 µM (UO-31)	inhibition of growth at 10 µM (RPMI-8226)	inhibition of growth at 10 µM (MCF7)	inhibition of growth at 10 µM (SF-539)	inhibition of growth at 10 µM (HOP-62)	also measured
< 5.00	7.71	< 5.00	7.47	NS(=O)(=O)c1ccc(N/N=C2\C(=O)N(Cc3ccccc3)c3ccc(Cl)cc32)cc1	55%	18%	11%	16%	13%	18%	31%	12%	20%	36%	18%	19%	10%	25%	39%	36%	pKi (Carbonic anhydrase 2): 7.28; inhibition of growth at 10 µM (MOLT-4): 28%; inhibition of growth at 10 µM (SR): 40%; inhibition of growth at 10 µM (SK-OV-3): 26%; inhibition of growth at 10 µM (OVCAR-5): 13%; inhibition of growth at 10 µM (Malme-3M): 30%; inhibition of growth at 10 µM (SNB-75): 22%; inhibition of growth at 10 µM (OVCAR-8): 35%; inhibition of growth at 10 µM (SN12C): 13%; inhibition of growth at 10 µM (NCI-H460): 35%; inhibition of growth at 10 µM (NCI-H226): 66%; inhibition of growth at 10 µM (NCI-H522): 31%; inhibition of growth at 10 µM (SK-MEL-5): 20%; inhibition of growth at 10 µM (ACHN): 35%; inhibition of growth at 10 µM (OVCAR-4): 71%
< 5.00	7.18	< 5.00	7.31	CCOC(=O)CN1C(=O)/C(=N\Nc2ccc(S(N)(=O)=O)cc2)c2cc(Br)ccc21	10%	35%	15%	23%	21%	14%	86%	12%	37%	14%	10%	13%	21%	16%	84%	35%	pKi (Carbonic anhydrase 2): 6.20; inhibition of growth at 10 µM (MOLT-4): 23%; inhibition of growth at 10 µM (SR): 25%; inhibition of growth at 10 µM (SK-OV-3): 18%; inhibition of growth at 10 µM (OVCAR-5): 14%; inhibition of growth at 10 µM (Malme-3M): 21%; inhibition of growth at 10 µM (SNB-75): 22%; inhibition of growth at 10 µM (OVCAR-8): 44%; inhibition of growth at 10 µM (SN12C): 12%; inhibition of growth at 10 µM (NCI-H460): 56%; inhibition of growth at 10 µM (NCI-H226): 14%; inhibition of growth at 10 µM (NCI-H522): 29%; inhibition of growth at 10 µM (SK-MEL-5): 12%; inhibition of growth at 10 µM (ACHN): 15%; inhibition of growth at 10 µM (OVCAR-4): 69%
